{"source": "patent US20240116918A1", "about": "“SUBSTITUTED TRICYCLIC COMPOUND AS PRMT5 INHIBITOR AND USE THEREOF” (NANJING SANHOME PHARMACEUTICAL CO., LTD., priority 2019, published 2024)", "key": {"[1]": {"system": "Z-138 cells", "experiment": "In vitro cell activity, Z-138 cells, CellTiter-Glo", "format": "cell-based", "conditions": "Z-138, 168 h, human mantle cell lymphoma cells, 7 days", "method": "Test compounds: the compounds of the present invention prepared in the above example. Each compound was formulated into a 10 mM stock solution with DMSO, and finally diluted into 8 concentrations for detection, with the final concentrations being 33333.00 nM, 6666.60 nM, 1333.32 nM, 266.66 nM, 53.33 nM, 10.67 nM, 2.13 nM, and 0.43 nM for experiments in Z-138 cells.\n2.1.1 Z-138 cell thawing: The cryovial for Z-138 cells was taken out from a liquid nitrogen tank and placed in a 37° C. water bath, and shaken gently for thawing as soon as possible. After thawing, the cryovial was taken out, and sterilized with an alcohol cotton ball, after which the cap was unscrewed. The cell fluid was drawn and injected into a centrifuge tube. 1 mL of complete medium containing 10% horse serum was added, and mixed uniformly. The tube was placed in a centrifuge, and centrifuged at 1000 rpm for 5 min. Afterwards, the supernatant was discarded, and complete medium was added. The mixture was pipetted repeatedly until the cells were completely dispersed and resuspended. The mixture was inoculated in a petri dish at an appropriate concentration, and cultured in a CO2 incubator at 37° C., 5% CO2, and 95% humidified air.\n2.2.1 Z-138 cell culture and passage: The cells grew to about 80-90%. The medium (IMDM medium+10% horse serum+1% penicillin-streptomycin) was transferred to a 15 mL centrifuge tube, and centrifuged at 1000 rpm for 5 min. The supernatant was removed. The cells were resuspended in complete medium, and inoculated in a petri dish at the desired density. The dish was placed in an incubator at 37° C., 5% CO2, and 95% humid air. The culture medium was replenished every 2-3 days or the passage was carried out, depending on the cell growth.\nAfter passage, Z-138 cells were resuspended in complete medium at a density of 1000 cells/well and inoculated in a 96-well culture plate. The 36 wells at the outer circumference of the 96-well plate were filled with 200 μL of PBS to prevent the culture conditions of the inner plate wells from being too different from each other due to the faster evaporation of medium at the edge. The leftmost column of the 60 inner wells were blank wells, which were not added with cells, but filled with equal volume of PBS. The remaining 54 wells were subjected to cell plating with a multichannel pipette, to each well was added 100 μL of culture medium containing corresponding cells. After cell plating was finished, the 96-well plate was tapped to make the cells evenly suspended, and placed in a 5% CO2 incubator and cultured at 37° C. for 24 h.\nFor Z-138 cells, in addition to the original medium (100 μL), 50 μL (3×) of drug was added, and duplicate wells were set for each concentration group. The plate was placed in a CO2 incubator and further cultured for 7 days. […]"}, "[2]": {"target": "hERG potassium channel (Homo sapiens (Human), UniProt Q12809)", "sequence (Q12809 whole entry)": "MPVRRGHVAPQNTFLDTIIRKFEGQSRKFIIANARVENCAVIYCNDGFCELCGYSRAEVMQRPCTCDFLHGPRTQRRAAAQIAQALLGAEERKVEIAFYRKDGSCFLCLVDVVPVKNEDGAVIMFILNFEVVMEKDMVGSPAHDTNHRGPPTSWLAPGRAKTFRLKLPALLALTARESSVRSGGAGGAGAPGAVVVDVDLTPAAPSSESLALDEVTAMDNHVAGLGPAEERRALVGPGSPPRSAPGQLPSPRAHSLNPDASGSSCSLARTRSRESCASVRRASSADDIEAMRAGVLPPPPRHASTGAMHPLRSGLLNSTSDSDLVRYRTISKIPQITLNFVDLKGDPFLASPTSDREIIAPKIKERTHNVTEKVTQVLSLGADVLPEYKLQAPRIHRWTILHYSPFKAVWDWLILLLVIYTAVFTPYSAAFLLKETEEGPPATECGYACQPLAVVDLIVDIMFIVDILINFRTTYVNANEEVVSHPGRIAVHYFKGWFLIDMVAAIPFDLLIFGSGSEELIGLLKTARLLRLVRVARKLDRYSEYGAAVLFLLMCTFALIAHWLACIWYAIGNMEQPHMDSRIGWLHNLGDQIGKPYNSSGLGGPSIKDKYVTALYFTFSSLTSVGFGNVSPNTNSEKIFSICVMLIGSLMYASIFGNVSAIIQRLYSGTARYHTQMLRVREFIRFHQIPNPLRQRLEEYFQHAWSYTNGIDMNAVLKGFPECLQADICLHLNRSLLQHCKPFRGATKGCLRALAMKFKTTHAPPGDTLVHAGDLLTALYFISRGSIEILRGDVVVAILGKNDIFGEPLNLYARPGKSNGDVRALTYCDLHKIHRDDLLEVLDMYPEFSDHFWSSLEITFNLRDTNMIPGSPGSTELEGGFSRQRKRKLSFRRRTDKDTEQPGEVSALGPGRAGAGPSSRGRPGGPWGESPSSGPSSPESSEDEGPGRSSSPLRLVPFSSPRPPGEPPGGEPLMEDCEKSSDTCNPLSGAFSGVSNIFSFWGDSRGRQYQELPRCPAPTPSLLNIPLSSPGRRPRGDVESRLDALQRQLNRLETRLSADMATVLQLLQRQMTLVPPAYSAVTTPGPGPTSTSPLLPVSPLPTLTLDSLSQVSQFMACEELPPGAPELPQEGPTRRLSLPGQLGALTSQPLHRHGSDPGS", "experiment": "Electrophysiological manual patch-clamp detection of effect on hERG potassium channel", "procedure": "Preparation of test solvents: preparation of extracellular fluid (mM): 137 NaCl, 4 KCl, 1.8 CaCl2, 1 MgCl2, 10 glucose and 10 HEPES (pH 7.4); preparation of intracellular fluid (mM): 130 KCl, 1 MgCl2, 5 EGTA, 5 MgATP and 10 HEPES (pH 7.2); preparation of negative control: extracellular fluid+0.3% DMSO; positive control: quinidine.\nCompound treatment: The compound was weighed and dissolved in DMSO to prepare a 10 mM stock solution, which was diluted with DMSO to form secondary stock solutions with concentrations of 3.3, 1.1, 0.37 and 0.12 mM. 90 μL each of the stock solution and the secondary stock solutions was diluted into 30 mL of extracellular fluid for electrophysiological detection. The final concentrations of the compound were 30, 10, 3.3, 1.1 and 0.37 μM, and the final concentration of DMSO was 3:1000.\nStably transfected cell culture: The cell line was originated from HEK-293 cells overexpressing hERG potassium ion channel. […] The cells were cultured in an incubator at 37° C. and 5% CO2. When the cell density reaches 80% of the petri dish, the cells were first pre-washed with phosphate buffered saline (PBS), then digested with trypsin/EDTA for 2-3 min. Cell culture medium was added to stop the digestion. The cells were gently blown down and transferred to a centrifuge tube, and centrifuged at 1000 rpm for 3 min. The supernatant was discarded, cell culture medium was added, and the cells were mixed uniformly by gentle tapping. After that, the mixture was transferred to a petri dish for subculture, or the cells were dripped on a round glass slide and placed on a petri dish for the cells to adhere for experiments.\nExperiments on electrophysiological manual patch-clamp system: The stably transfected cells were inoculated on a glass slide with a cell density lower than 50%, and cultured overnight. The experimental cells were transferred to a bath of about 1 mL embedded in an inverted microscope platform, and the extracellular fluid was perfused at a perfusion rate of 2.7 mL/min. After 5 minutes of stabilization, the experiment was started. Membrane currents were recorded using HEKA EPC-10 patch clamp amplifier and [sequence] acquisition system. All the experiments were performed at room temperature (22-24° C.). Electrodes were drawn straight using P-97 microelectrode drawing instrument (BF150-110-10) in the experiments. The inner diameter of the electrode was 1-1.5 mm, and the pipette resistance after filling with the inner liquid was 2-4 MΩ. The electrophysiological stimulation scheme of hERG potassium channel included: first setting the membrane voltage at −80 mV, applying a stimulation to the cells at +20 mV voltage for 2 s to activate the hERG potassium channel, and then repolarizing to −50 mV for 5 s to generate an outward tail current. The stimulation frequency was once every 15 s. The current value was the peak value of the tail current. The channel currents were recorded in the whole-cell recording mode. Firstly, the extracellular fluid was perfused (about 2 mL per minute) while recording was continued. When the current was stabilized (the current decay (Run-Down) was less than 5% within 5 minutes), the peak value of the tail current was the control current value. Then, the extracellular fluid containing the drug to be tested was perfused while the recording was continued until the inhibitory effect of the drug on the hERG current reached a steady state. At this time, the peak value of the tail current was the current value after drug addition. […]"}}, "data": [{"smiles": "CC(=O)N1CCC(Nc2cc(C(=O)NC[C@H](O)CN3CCc4ccccc4C3)ncn2)CC1", "note": "[Compound A, (S)-6-((1-Acetylpiperidin-4-yl)amino)-N-(3-(3,4-dihydroisoquinolin-2(1H)-yl)-2-hydroxypropyl)pyrimidine-4-carboxamide]", "values": [{"measurement": "IC50", "setting": "[1]", "value": 19.5, "unit": "nM"}]}, {"smiles": "CC(=O)N1CCC(Nc2ccc3c(c2)C(=O)N(C[C@H](O)CN2CCc4ccccc4C2)CC32CC2)CC1", "note": "[Compound B, (R)-7′-((1-Acetylpiperidin-4-yl)amino)-2′-(3-(3,4-dihydroisoquinolin-2(1H)-yl)-2-hydroxypropyl)-2′,3′-dihydro-1′H-spiro[cyclopropane-1,4′-isoquinolin]-1′-one, reference compound]", "values": [{"measurement": "IC50", "setting": "[1]", "value": 4.33, "unit": "nM"}, {"measurement": "IC50", "setting": "[2]", "value": 2.71, "unit": "µM"}]}, {"smiles": "CC(=O)N1CCC(Nc2cc3c(cn2)C2(CC2)CN(C[C@H](O)CN2CCc4ccccc4C2)C3=O)CC1", "note": "[Example 1, (R)-7′-((1-acetylpiperidin-4-yl)amino)-2′-(3-(3,4-dihydroisoquinolin-2(1H)-yl)-2-hydroxypropyl)-2′,3′-dihydro-1′H-spiro[cyclopropane-1,4′-[2,6]naphthyridin]-1′-one]", "values": [{"measurement": "IC50", "setting": "[1]", "value": 3.07, "unit": "nM"}, {"measurement": "IC50", "setting": "[2]", "value": 5.24, "unit": "µM"}, {"measurement": "inhibitory effect on the hERG potassium channel (in words)", "setting": "[2]; conclusion from Table 4", "value": "weak inhibitory effect"}]}, {"smiles": "CC(=O)N1CC2(CC(Nc3cc4c(cn3)C3(CC3)CN(C[C@H](O)CN3CCc5ccccc5C3)C4=O)C2)C1", "note": "[Example 2, (R)-7′-((2-acetyl-2-azaspiro[3.3]hept-6-yl)amino)-2′-(3-(3,4-dihydroisoquinolin-2(1H)-yl)-2-hydroxypropyl)-2′,3′-dihydro-1′H-spiro[cyclopropane-1,4′-[2,6]naphthyridin]-1-one]", "values": [{"measurement": "IC50", "setting": "[1]", "value": 2.2, "unit": "nM"}, {"measurement": "IC50", "setting": "[2]", "value": 15.1, "unit": "µM"}]}]}
